Reference: ChEMBL document CHEMBL1201862, “PubChem BioAssay data set” (2004)
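Interpolation was linear, between the two tested concentrations surrounding the appropriate level; five concentrations were tested over 48 hours in 96-well plates. GI50 is the concentration that inhibits growth by half.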 Active and inactive are the calls of the source. Cut-off read from the data, not from the text of the source: active = GI50 up to about 1.1 µM and inactive = higher.

What was measured:
Assay in all cases: DTP human tumour cell line panel, 48 h
UACC-257 = tested on: UACC-257
OVCAR-5 = tested on: OVCAR-5
SK-MEL-5 = tested on: SK-MEL-5
T47D = tested on: T47D
MOLT-4 = tested on: MOLT-4
SW-620 = tested on: SW-620
CCRF-CEM = tested on: CCRF-CEM
OVCAR-3 = tested on: OVCAR-3
EKVX = tested on: EKVX
LOX IMVI = tested on: LOX IMVI
KM12 = tested on: KM12
SF-539 = tested on: SF-539
HCT-15 = tested on: HCT-15
HOP-62 = tested on: HOP-62
A498 = tested on: A498
NCI-H23 = tested on: NCI-H23
SK-MEL-28 = tested on: SK-MEL-28
SF-295 = tested on: SF-295
HCT-116 = tested on: HCT-116
HOP-92 = tested on: HOP-92

Structure (SMILES)	GI50 (UACC-257)	GI50 (OVCAR-5)	GI50 (SK-MEL-5)	GI50 (T47D)	GI50 (MOLT-4)	GI50 (SW-620)	GI50 (CCRF-CEM)	GI50 (OVCAR-3)	GI50 (EKVX)	GI50 (LOX IMVI)	GI50 (KM12)	GI50 (SF-539)	GI50 (HCT-15)	GI50 (HOP-62)	GI50 (A498)	GI50 (NCI-H23)	GI50 (SK-MEL-28)	GI50 (SF-295)	GI50 (HCT-116)	GI50 (HOP-92)
COC1C(OC(=O)c2ccc(C)[nH]2)C(O)C(Oc2ccc3c(O)c(NC(=O)c4ccc(O)c(CC=C(C)C)c4)c(=O)oc3c2Cl)OC1(C)C (configuration not stated)	54 µM (inactive)	15.9 µM (inactive)	19.7 µM (inactive)	15.9 µM (inactive)	16.2 µM (inactive)	18.5 µM (inactive)	18.1 µM (inactive)	18.7 µM (inactive)	18.7 µM (inactive)	18.1 µM (inactive)	12.5 µM (inactive)	18 µM (inactive)	18.5 µM	15.5 µM (inactive)	17.9 µM (inactive)	20.1 µM (inactive)	16.3 µM (inactive)	17.7 µM (inactive)	16.4 µM (inactive)	–
Nc1cc(Cl)ccc1SSc1ccc(Cl)cc1N	17.6 µM (inactive)	14.8 µM (inactive)	14 µM (inactive)	5.92 µM (inactive)	4.06 µM (inactive)	3.94 µM (inactive)	3.07 µM (inactive)	–	9.55 µM (inactive)	3.49 µM (inactive)	9.51 µM (inactive)	12 µM (inactive)	2.99 µM	14.6 µM (inactive)	–	5.61 µM (inactive)	15.9 µM (inactive)	11 µM (inactive)	9.16 µM (inactive)	41.7 µM (inactive)
C=C1CCC(OC(C)=O)C2(C)C(OC(C)=O)CC3OC3(C)C2C(OC(C)=O)C2C(C)C(=O)OC2C1Cl (configuration not stated)	> 100 µM (inactive)	> 100 µM (inactive)	> 100 µM (inactive)	–	> 100 µM (inactive)	> 100 µM (inactive)	> 100 µM (inactive)	> 100 µM (inactive)	> 100 µM (inactive)	> 100 µM (inactive)	> 100 µM (inactive)	> 100 µM (inactive)	> 100 µM	> 100 µM (inactive)	> 100 µM (inactive)	> 100 µM (inactive)	> 100 µM (inactive)	> 100 µM (inactive)	> 100 µM (inactive)	> 100 µM (inactive)
COC(=O)C1CC2CC(=NNC(N)=O)CC2C1 (configuration not stated)	> 100 µM (inactive)	> 100 µM (inactive)	> 100 µM (inactive)	–	> 100 µM (inactive)	> 100 µM (inactive)	> 100 µM (inactive)	> 100 µM (inactive)	> 100 µM (inactive)	> 100 µM (inactive)	> 100 µM (inactive)	> 100 µM (inactive)	> 100 µM	> 100 µM (inactive)	> 100 µM (inactive)	> 100 µM (inactive)	> 100 µM (inactive)	> 100 µM (inactive)	> 100 µM (inactive)	> 100 µM (inactive)
CSc1[nH]cnc1C(N)=S	> 100 µM (inactive)	> 100 µM (inactive)	> 100 µM (inactive)	> 100 µM (inactive)	> 100 µM (inactive)	> 100 µM (inactive)	–	> 100 µM (inactive)	> 100 µM (inactive)	> 100 µM (inactive)	> 100 µM (inactive)	> 100 µM (inactive)	–	> 100 µM (inactive)	> 100 µM (inactive)	> 100 µM (inactive)	> 100 µM (inactive)	> 100 µM (inactive)	> 100 µM (inactive)	–
COCCN(C(C)=O)C1CCC2(SCCS2)c2[nH]c3ccccc3c21 (configuration not stated)	> 100 µM (inactive)	> 100 µM (inactive)	> 100 µM (inactive)	–	56.9 µM (inactive)	> 100 µM (inactive)	> 100 µM (inactive)	> 100 µM (inactive)	> 100 µM (inactive)	> 100 µM (inactive)	> 100 µM (inactive)	> 100 µM (inactive)	> 100 µM	> 100 µM (inactive)	> 100 µM (inactive)	> 100 µM (inactive)	> 100 µM (inactive)	> 100 µM (inactive)	> 100 µM (inactive)	70.3 µM (inactive)
CCOC(=O)c1cc(C(O)P2(=O)N(CC(C)(C)C)[C@@H]3CCCC[C@H]3N2CC(C)(C)C)cn1C(=O)OC(C)(C)C (some centres not stated)	14.4 µM (inactive)	17.3 µM (inactive)	17.5 µM (inactive)	15.1 µM (inactive)	12.8 µM (inactive)	16.2 µM (inactive)	–	12.3 µM (inactive)	20.5 µM (inactive)	17.6 µM (inactive)	14.8 µM (inactive)	–	17.1 µM	13.7 µM (inactive)	23.9 µM (inactive)	24.3 µM (inactive)	16.6 µM (inactive)	15 µM (inactive)	11.2 µM (inactive)	–
Cc1ccc(NC(=O)c2cc(S(=O)(=O)N3CCNNC3=O)c(S)cc2Cl)cc1	> 100 µM (inactive)	> 100 µM (inactive)	> 100 µM (inactive)	41.8 µM (inactive)	> 100 µM (inactive)	> 100 µM (inactive)	> 100 µM (inactive)	> 100 µM (inactive)	> 100 µM (inactive)	> 100 µM (inactive)	> 100 µM (inactive)	> 100 µM (inactive)	> 100 µM	–	–	–	> 100 µM (inactive)	> 100 µM (inactive)	> 100 µM (inactive)	41.3 µM (inactive)
COC(=O)CCC(NC(=S)N/N=C(\C)c1cnccn1)C(=O)OC (configuration not stated)	33.8 µM (inactive)	21 µM (inactive)	34.2 µM (inactive)	–	15.7 µM (inactive)	49.3 µM (inactive)	16.8 µM (inactive)	34.5 µM (inactive)	40 µM (inactive)	31.6 µM (inactive)	70.6 µM (inactive)	62.5 µM (inactive)	44.5 µM	36.2 µM (inactive)	> 100 µM (inactive)	87.5 µM (inactive)	55.8 µM (inactive)	52.4 µM (inactive)	33.9 µM (inactive)	> 100 µM (inactive)
O=C(O)CC[P+](c1ccccc1)(c1ccccc1)c1ccccc1	23.2 µM (inactive)	38.1 µM (inactive)	14.6 µM (inactive)	7.94 µM (inactive)	49.1 µM (inactive)	> 100 µM (inactive)	50.7 µM (inactive)	13.5 µM (inactive)	36.8 µM (inactive)	30.7 µM (inactive)	29 µM (inactive)	–	> 100 µM	37.2 µM (inactive)	42.9 µM (inactive)	23.3 µM (inactive)	> 100 µM (inactive)	79.6 µM (inactive)	21.3 µM (inactive)	–
Cc1cc2c(cc1Cl)SC(NNC(=O)c1ccco1)=NS2(=O)=O	> 10 µM (inactive)	> 10 µM (inactive)	> 10 µM (inactive)	> 10 µM (inactive)	> 10 µM (inactive)	> 10 µM (inactive)	> 10 µM (inactive)	> 10 µM (inactive)	> 10 µM (inactive)	> 10 µM (inactive)	> 10 µM (inactive)	> 10 µM (inactive)	> 10 µM	> 10 µM (inactive)	> 10 µM (inactive)	> 10 µM (inactive)	> 10 µM (inactive)	> 10 µM (inactive)	> 10 µM (inactive)	–
CCC12C=C(C(=O)OC)N3c4ccccc4C4CCN(CCC1)C2C43 (configuration not stated)	34.2 µM (inactive)	40.9 µM (inactive)	72.1 µM (inactive)	–	66.8 µM (inactive)	59.7 µM (inactive)	> 100 µM (inactive)	> 100 µM (inactive)	> 100 µM (inactive)	59.4 µM (inactive)	48.3 µM (inactive)	> 100 µM (inactive)	64.3 µM	38.9 µM (inactive)	66.2 µM (inactive)	99.3 µM (inactive)	95.7 µM (inactive)	98.2 µM (inactive)	68.7 µM (inactive)	34.8 µM (inactive)
O=C(O)c1cccc(S(=O)(=O)NN2C(=O)CSC2c2c(O)ccc3ccccc23)c1 (configuration not stated)	56.4 µM (inactive)	79.3 µM (inactive)	21 µM (inactive)	22.5 µM (inactive)	19 µM (inactive)	21.1 µM (inactive)	16 µM (inactive)	20.6 µM (inactive)	45.8 µM (inactive)	27.4 µM (inactive)	41.3 µM (inactive)	22.2 µM (inactive)	42.5 µM	47 µM (inactive)	24.5 µM (inactive)	21.7 µM (inactive)	26.4 µM (inactive)	29.3 µM (inactive)	19.6 µM (inactive)	–
COc1ccc2nc3cc(Cl)ccc3c(NC(C)CCCN(CCCl)CCCl)c2c1 (configuration not stated)	1.43 µM (inactive)	0.929 µM (active)	1.97 µM (inactive)	–	0.054 µM (active)	0.116 µM (active)	0.0612 µM (active)	0.853 µM (active)	0.787 µM (active)	0.176 µM (active)	0.52 µM (active)	0.55 µM (active)	1.11 µM	1.4 µM (inactive)	3.12 µM (inactive)	0.51 µM (active)	5 µM (inactive)	0.215 µM (active)	0.199 µM (active)	0.569 µM (active)
CCN(CC)CCC(=O)Nc1ccc2sc3ccccc3c(=O)c2n1	17.3 µM (inactive)	18.9 µM (inactive)	17.9 µM (inactive)	16.1 µM (inactive)	7.78 µM (inactive)	12 µM (inactive)	14.5 µM (inactive)	19.2 µM (inactive)	25.9 µM (inactive)	14 µM (inactive)	16.3 µM (inactive)	18 µM (inactive)	19.3 µM	16 µM (inactive)	–	17.8 µM (inactive)	16.7 µM (inactive)	21.2 µM (inactive)	12.5 µM (inactive)	0.02 µM (active)
